Legend:
[1] = target: T1, Inhibitor of nuclear factor kappa-B kinase subunit alpha (Homo sapiens) (UniProt O15111); assay: Selectivity interaction (KinomeScan (DiscoverX)) EUB0001049a CHUK; details: at 1 µM
T1 sequence (whole entry): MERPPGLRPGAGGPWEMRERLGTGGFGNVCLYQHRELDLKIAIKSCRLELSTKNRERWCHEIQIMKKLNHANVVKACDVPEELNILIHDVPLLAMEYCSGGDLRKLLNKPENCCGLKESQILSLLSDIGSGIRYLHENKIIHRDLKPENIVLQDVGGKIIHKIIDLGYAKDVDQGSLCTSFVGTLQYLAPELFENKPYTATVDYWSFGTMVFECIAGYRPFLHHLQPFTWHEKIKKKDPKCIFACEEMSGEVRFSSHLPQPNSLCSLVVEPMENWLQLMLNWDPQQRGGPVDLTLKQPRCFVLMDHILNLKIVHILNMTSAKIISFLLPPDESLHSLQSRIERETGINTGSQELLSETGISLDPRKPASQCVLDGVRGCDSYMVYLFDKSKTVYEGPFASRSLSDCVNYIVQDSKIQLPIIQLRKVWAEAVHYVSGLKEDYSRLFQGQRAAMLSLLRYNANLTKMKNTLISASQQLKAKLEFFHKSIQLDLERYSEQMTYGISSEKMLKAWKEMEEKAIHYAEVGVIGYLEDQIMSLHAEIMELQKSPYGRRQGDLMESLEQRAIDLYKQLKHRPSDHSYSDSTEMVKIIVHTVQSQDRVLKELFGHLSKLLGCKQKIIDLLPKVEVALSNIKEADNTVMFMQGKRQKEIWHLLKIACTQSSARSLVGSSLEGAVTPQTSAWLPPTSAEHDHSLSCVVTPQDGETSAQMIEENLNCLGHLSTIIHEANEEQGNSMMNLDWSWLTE

[2] = target: T2, Ephrin type-B receptor 4 (Homo sapiens) (UniProt P54760); assay: Selectivity interaction (KinomeScan (DiscoverX)) EUB0000666a EPHB4; details: at 10 µM
T2 sequence (whole entry): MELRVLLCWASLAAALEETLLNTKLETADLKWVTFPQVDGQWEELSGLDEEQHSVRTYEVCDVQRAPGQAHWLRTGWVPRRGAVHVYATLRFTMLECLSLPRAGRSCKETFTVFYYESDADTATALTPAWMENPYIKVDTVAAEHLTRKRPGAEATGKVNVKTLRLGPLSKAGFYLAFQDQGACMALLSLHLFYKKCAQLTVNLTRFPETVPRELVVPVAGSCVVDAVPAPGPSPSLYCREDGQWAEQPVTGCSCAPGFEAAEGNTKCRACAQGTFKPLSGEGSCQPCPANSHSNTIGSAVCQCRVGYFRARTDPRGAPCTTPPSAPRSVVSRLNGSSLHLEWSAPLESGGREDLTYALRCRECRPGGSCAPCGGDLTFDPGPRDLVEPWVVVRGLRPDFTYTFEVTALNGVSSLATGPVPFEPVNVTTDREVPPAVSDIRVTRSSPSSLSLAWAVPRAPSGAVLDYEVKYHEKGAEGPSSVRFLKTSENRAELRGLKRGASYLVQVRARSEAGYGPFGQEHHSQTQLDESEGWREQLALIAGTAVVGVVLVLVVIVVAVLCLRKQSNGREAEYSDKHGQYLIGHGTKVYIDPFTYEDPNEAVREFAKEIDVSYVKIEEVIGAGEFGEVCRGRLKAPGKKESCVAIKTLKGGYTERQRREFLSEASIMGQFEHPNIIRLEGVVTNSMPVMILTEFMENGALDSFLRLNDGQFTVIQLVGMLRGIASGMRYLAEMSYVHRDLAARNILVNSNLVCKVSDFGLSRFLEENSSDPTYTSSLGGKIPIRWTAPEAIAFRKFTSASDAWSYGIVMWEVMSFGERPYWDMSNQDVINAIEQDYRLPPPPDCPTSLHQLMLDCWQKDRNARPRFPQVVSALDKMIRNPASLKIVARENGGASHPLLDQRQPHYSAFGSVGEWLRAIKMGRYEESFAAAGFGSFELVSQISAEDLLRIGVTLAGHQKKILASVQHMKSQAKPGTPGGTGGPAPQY

[3] = target: Ephrin type-A receptor 5 (Homo sapiens) (UniProt P54756); assay: Selectivity interaction (KinomeScan (DiscoverX)) EUB0001619a EPHA5; details: at 1 µM
[4] = target: Tyrosine-protein kinase Fyn (Homo sapiens) (UniProt P06241); assay: Selectivity interaction (KinomeScan (DiscoverX)) EUB0000607a FYN; details: at 10 µM
[5] = target: T3, Tyrosine-protein kinase JAK3 (Homo sapiens) (UniProt P52333); assay: Selectivity interaction (ProQinase) EUB0000171b JAK3
T3 sequence (whole entry): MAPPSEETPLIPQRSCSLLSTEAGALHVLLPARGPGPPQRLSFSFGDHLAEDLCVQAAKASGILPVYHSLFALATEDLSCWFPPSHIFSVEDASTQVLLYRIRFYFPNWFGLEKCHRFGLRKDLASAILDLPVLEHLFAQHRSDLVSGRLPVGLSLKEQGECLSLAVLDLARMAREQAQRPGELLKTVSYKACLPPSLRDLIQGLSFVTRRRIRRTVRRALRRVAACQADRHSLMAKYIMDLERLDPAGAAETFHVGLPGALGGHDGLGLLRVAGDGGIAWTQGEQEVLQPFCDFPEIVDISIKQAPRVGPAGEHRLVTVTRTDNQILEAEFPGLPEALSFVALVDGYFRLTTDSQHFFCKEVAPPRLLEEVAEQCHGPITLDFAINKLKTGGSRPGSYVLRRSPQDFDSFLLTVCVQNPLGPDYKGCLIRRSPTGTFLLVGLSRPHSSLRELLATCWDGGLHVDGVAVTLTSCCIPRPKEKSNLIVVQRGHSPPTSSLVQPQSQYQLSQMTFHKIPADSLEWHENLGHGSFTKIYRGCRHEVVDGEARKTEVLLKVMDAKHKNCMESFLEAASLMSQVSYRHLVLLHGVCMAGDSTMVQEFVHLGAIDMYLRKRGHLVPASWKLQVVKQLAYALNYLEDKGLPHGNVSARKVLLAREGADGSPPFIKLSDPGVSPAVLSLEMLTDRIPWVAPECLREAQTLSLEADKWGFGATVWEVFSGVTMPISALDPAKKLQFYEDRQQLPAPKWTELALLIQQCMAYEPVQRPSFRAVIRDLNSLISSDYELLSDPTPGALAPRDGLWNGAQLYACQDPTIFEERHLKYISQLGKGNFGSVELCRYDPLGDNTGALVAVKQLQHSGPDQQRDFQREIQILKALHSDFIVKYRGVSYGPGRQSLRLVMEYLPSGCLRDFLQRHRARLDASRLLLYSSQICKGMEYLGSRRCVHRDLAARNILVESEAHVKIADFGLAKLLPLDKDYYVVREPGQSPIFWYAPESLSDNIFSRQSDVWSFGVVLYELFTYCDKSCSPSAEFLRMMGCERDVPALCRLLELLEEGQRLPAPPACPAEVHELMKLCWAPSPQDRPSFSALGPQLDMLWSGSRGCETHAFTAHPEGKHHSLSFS

Sequence of Ephrin type-A receptor 5 (Homo sapiens) (P54756 whole entry): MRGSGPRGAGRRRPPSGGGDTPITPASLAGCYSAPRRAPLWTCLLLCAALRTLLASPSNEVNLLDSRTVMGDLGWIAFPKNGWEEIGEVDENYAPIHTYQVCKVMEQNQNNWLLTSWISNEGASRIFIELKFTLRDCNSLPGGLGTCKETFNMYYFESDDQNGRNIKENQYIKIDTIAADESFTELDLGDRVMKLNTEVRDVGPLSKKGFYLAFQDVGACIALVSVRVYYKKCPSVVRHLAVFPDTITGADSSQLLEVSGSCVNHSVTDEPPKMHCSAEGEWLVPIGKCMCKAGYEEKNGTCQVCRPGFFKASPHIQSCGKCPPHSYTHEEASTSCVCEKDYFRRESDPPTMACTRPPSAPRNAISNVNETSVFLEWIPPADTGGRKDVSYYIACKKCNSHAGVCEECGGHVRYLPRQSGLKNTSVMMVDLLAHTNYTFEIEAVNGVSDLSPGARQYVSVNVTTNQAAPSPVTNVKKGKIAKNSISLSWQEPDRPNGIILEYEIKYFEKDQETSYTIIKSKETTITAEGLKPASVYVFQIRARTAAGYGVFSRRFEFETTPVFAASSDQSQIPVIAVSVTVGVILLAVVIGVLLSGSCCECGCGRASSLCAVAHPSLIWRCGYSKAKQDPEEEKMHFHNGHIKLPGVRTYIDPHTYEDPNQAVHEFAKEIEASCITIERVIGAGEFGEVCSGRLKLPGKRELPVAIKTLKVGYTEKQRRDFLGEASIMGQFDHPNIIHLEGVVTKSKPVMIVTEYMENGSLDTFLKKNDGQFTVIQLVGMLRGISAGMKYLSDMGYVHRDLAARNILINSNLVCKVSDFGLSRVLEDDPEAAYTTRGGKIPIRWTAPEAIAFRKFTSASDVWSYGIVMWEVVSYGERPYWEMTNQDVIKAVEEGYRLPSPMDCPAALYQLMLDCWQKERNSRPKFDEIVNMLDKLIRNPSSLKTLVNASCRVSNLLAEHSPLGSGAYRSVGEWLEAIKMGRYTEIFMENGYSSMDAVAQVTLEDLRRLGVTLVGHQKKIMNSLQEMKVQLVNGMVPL
Sequence of Tyrosine-protein kinase Fyn (Homo sapiens) (P06241 2-537 limits assumed): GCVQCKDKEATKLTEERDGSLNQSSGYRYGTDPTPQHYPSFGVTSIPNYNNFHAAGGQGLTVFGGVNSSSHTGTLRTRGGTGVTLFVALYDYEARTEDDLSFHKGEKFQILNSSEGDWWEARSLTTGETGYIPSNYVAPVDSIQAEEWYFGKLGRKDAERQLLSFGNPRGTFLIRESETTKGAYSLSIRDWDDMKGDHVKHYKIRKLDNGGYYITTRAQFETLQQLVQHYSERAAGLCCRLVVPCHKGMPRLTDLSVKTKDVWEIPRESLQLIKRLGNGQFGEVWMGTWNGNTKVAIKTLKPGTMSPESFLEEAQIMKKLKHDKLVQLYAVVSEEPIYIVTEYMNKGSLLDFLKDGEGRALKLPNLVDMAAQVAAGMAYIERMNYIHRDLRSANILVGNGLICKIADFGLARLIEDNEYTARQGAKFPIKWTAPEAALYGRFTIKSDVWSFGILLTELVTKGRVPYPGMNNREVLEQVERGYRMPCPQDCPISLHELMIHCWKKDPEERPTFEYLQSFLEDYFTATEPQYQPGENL

Q: With `COc1cc(Nc2nc(C)cc(-c3cnn4nc(OC)ccc34)n2)cc(C(F)(F)F)c1` as the compound, how does the % of control [1] read?
A: 95%

Q: Which % of control [2] does the source give for `O=C(NOC[C@H](O)CO)c1ccc(F)c(F)c1Nc1ccc(I)cc1F` here?
A: 100%

Q: With `N#Cc1cccc(-c2c[nH]c3ncnc(N4CCOCC4)c23)c1` as the compound, how does the % of control [3] read?
A: 99%

Q: How did the % of control [4] turn out when `CNC(=O)Nc1ccc(-c2nc(N3CC4CCC(C3)O4)c3cnn(C4CCC5(CC4)OCCO5)c3n2)cc1` was run?
A: 70%

Q: Which results are given for `C=CC(=O)Nc1cccc(C(=O)Nc2ccc(Nc3cc(-c4[nH]c(SC)nc4C)ccn3)cc2)c1`?
A: % of control ([5]; at 1 µM): 79%; % of control ([5]; at 5 µM): 54%

— ChEMBL document CHEMBL5465560, “Selectivity Literature for EUbOPEN Chemogenomic Library” (2024)
